These results are taken from ChEMBL document CHEMBL1130951, “A photoactivated prodrug” (Bioorg Med Chem Lett, 1998).

Data set [1] has as its system DH5 alpha. The data set can be described thus: Compound was tested for its ability to inhibit growth of Escherichia coli DH5 alpha cells at 100 uM concentration; complete arrest of cell growth observed. The class given is functional, cell-based.
The nature of data set [2]: T1/2 was determined. It counts as ADME.
Data set [3] has as its system DH5 alpha. The data set can be described thus: Compound was irradiated and tested for its ability to inhibit growth of Escherichia coli DH5 alpha cells at 100 uM concentration; cell growth almost completely inhibited. The class given is functional, cell-based.
In data set [4] the test system is DH5 alpha. In words: Compound was tested for its ability to inhibit growth of Escherichia coli DH5 alpha cells at 100 uM concentration; slight growth inhibition observed. It counts as functional, cell-based.

The structures appear in SMILES notation.

Take `O=c1[nH]c(=O)n([C@H]2C[C@H](O)[C@@H](CO)O2)cc1F`: the inhibition result with DH5 alpha [1] is “complete arrest of cell growth observed”.
By half-life is commonly meant the time needed for the level to fall by half in the phase considered. The low end stands for rapid decline, the high end for slow decline. In data set [2], `COc1cc(COC(=O)OC[C@H]2O[C@@H](n3cc(F)c(=O)[nH]c3=O)C[C@@H]2O)c([N+](=O)[O-])cc1OC` registered a half-life of 6 min. The inhibition entry with DH5 alpha [3] and in the data set on DH5 alpha [4] was “cell growth almost completely inhibited” in each case.
